Columns and labels:
FPTase = FPTase (Homo sapiens, UniProt P49354+P49356); assay: FPTase inhibition ([3H]FPP transfer to H-Ras); assay type: biochemical; conditions: 40 μM test compound (unless otherwise indicated)
Protocol: (§1) For those assays, the reaction mixtures contained the following components in 50 μl:0.25 μM [^3 H]GGPP (sp. act. 8-10 Ci/mmol), 2.5 μM Ras-CVLL, 50 mM Tris-Cl, pH 7.7, 20 mM KCl, 5 mM MgCl2, 5 μM ZnCl2, 1 mM DTT, 0.5 mM Zwittergent 3-14 and the desired amount of the compound to be tested for inhibitory potential. After pre-equilibrating the assay mixture at 30° C. in the absence of the enzyme, the reaction was initiated by addition of the enzyme (75 ng). Following an about 10 minute incubation at about 30° C., the reactions were terminated by addition of about 0.5 ml of about 4% SDS. About 40 mg of bovine brain membranes was added to the samples to enhance recovery during precipitation. […] Reactions were never allowed to proceed to more than 10% completion based on the limiting substrate. Assays for the inhibition studies of FPTase were performed analogous the GGPTase I inhibition studies, except [^3 H]GGPP was replaced with 0.25 μM of [^3 H]FPP (sp. act. 8-10 ci/mmol) and Ras-CVLL was replaced with 1 μM H-Ras.
(§2) Using the method described above, the GGPTase I and FPTase inhibitory activities of some of the compounds of the present invention were measured. The results of these measurements are provided in Tables I-VI, wherein a value of 100 indicates 100% GGPTase I or FPTase inhibition. Unless otherwise indicated, 40 μM concentration of a test compound is used. The term "alpha" refers to the position of R^1 substituent (e.g., 3,4-dichlorophenyl in Table I) on the nitrogen atom in the pyrazole ring that results in the shortest retention time using the HPLC gradient reported above, where as the term "beta" refers to the position of R^1 substituent (e.g., 3,4-dichlorophenyl in Table I) on the nitrogen atom in the pyrazole ring that results in a longer HPLC retention time than the alphα-regioisomer. Mixtures of regioisomers and/or enantiomers are used unless indicated otherwise using the above alpha and beta notations. The term "N/D" means not determined. In Tables I-VI, R^6 group indicated by *1 refers to {[N"-(1'-oxo-1'-pyrid-3-yl)methyl]-N'-carbamoyl}-3-aminopropyl moiety.

GGPTase I = biological target: T1, GGPTase I (Rattus norvegicus, UniProt P53610+Q04631); assay: GGPTase I inhibition ([3H]GGPP transfer to Ras-CVLL); assay type: biochemical; conditions: 40 μM test compound (unless otherwise indicated)
T1 construct: made in house; host or cells: Sf9 insect cells (recombinant baculovirus, co-infection)
Protocol: as §1, §2

SMILES | inhibition at 40 µM (FPTase) | inhibition at 40 µM (GGPTase I)
NC(=O)CNC(=O)CCCCc1cc(-c2cccnc2)n[nH]1 [IX, R^6 = HYDROGEN, R^1 = HYDROGEN] | 58% | –
CS(=O)(=O)CCC(NC(=O)CCc1cc(-c2cccnc2)n[nH]1)C(N)=O (centres unmarked) | 78% | –
NC(=O)C(Cc1ccc(O)cc1)NC(=O)CCc1cc(-c2cccnc2)n[nH]1 (centres unmarked) | – | 24%
NC(=O)C(Cc1c[nH]c2ccccc12)NC(=O)CCc1cc(-c2cccnc2)n[nH]1 (centres unmarked) | 83% | 24%

More lines, now with the values ahead:

inhibition at 40 µM (FPTase) | inhibition at 40 µM (GGPTase I) | SMILES
57% | – | NC(=O)C(CCCNC(=O)NC(=O)c1cccnc1)NC(=O)CCCCc1cc(-c2cccnc2)n[nH]1 (centres unmarked) [IX, R^6 = *1, R^1 = HYDROGEN]
– | 27% | NC(=O)C(Cc1ccccc1)NC(=O)CCCCc1cc(-c2cccnc2)n[nH]1 (centres unmarked) [IX, R^6 = BENZYL, R^1 = HYDROGEN]
50% | – | NC(=O)C(CCCNC(=O)NC(=O)c1cccnc1)NC(=O)CCc1cc(-c2cccnc2)n[nH]1 (centres unmarked) [X, R^6 = *1, R^1 = HYDROGEN]
72% | – | CC(C)C(NC(=O)CCc1cc(-c2cccnc2)n[nH]1)C(N)=O (centres unmarked) [X, R^6 = ISOPROPYL, R^1 = HYDROGEN]
78% | 33% | CC(C)C(NC(=O)CCCCc1cc(-c2cccnc2)n[nH]1)C(N)=O (centres unmarked) [IX, R^6 = ISOPROPYL, R^1 = HYDROGEN]

From patent US6191147A, “Pyrazole compounds and uses thereof” (PPD Discovery, Inc., priority 1999, dated 2001)
